Experimental data: PubChem BioAssay (NCI)
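Where inhibition never reached the appropriate level, the endpoint shown equals the highest concentration tested. Otherwise, values were interpolated linearly from a five-concentration, 48-hour dose response in 96-well plates. TGI: total growth inhibition.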

Legend:
Test in all cases: growth of human tumour cells (NCI), 48 h
786-0 renal = test system: 786-0 renal
A498 renal = test system: A498 renal
CAKI-1 renal = test system: CAKI-1 renal
DMS 114 small cell lung = test system: DMS 114 small cell lung
HOP-62 NSCLC = test system: HOP-62 NSCLC
HS 578T breast = test system: HS 578T breast
KM20L2 colon = test system: KM20L2 colon
LXFL 529 NSCLC = test system: LXFL 529 NSCLC
OVCAR-8 ovarian = test system: OVCAR-8 ovarian
SN12C renal = test system: SN12C renal

SMILES | TGI (786-0 renal) [µM] | TGI (A498 renal) [µM] | TGI (CAKI-1 renal) [µM] | TGI (DMS 114 small cell lung) [µM] | TGI (HOP-62 NSCLC) [µM] | TGI (HS 578T breast) [µM] | TGI (KM20L2 colon) [µM] | TGI (LXFL 529 NSCLC) [µM] | TGI (OVCAR-8 ovarian) [µM] | TGI (SN12C renal) [µM]
N#Cc1cccc(N2C(=O)C3C4C=CC(C3C2=O)C2C(=O)N(c3cccc(C#N)c3)C(=O)C42)c1 (stereo not given) | > 63.1 | 42 | > 87 | 42 | 38.1 | > 95.5 | > 100 | > 46.4 | > 63.1 | > 39.8
COC(=O)C1CCc2nnc(-c3ccccc3)n21 (stereo not given) | > 100 | > 100 | > 100 | > 100 | > 100 | – | > 100 | > 100 | > 100 | > 100
NC(=O)c1ccc(Cl)c([N+](=O)[O-])c1 | > 100 | > 100 | > 100 | > 100 | > 100 | – | > 100 | > 100 | > 100 | > 100
C=C1C[C@@H]2C[C@@H](C)CC(O)[C@]2(CCCN)C1O (stereo not given in full) | > 100 | > 100 | > 100 | > 100 | > 100 | – | > 100 | > 100 | > 100 | > 100
COc1ccc2c(c1)CCc1c-2n[nH]c1-c1[nH]nc2c1CCc1cc(OC)ccc1-2 | 41.1 | > 100 | 92.7 | > 100 | 56.3 | – | > 100 | > 100 | > 100 | > 100
CO[C@@]1(c2ccccc2)O[C@H]2OCCC2[C@H]1c1ccc(Cl)cc1 (stereo not given in full) | > 100 | 53.3 | > 100 | > 100 | > 100 | – | > 100 | > 100 | > 100 | > 100
